Measurements published in PMC8158484, “Activity Components from Gynostemma pentaphyllum for Preventing Hepatic Fibrosis and of Its Molecular Targets by Network Pharmacology Approach” (Molecules, 2021).
Read-outs that look alike come from different tables or passages of the source.

Key:
Format in all cases: cell-based, human
t-HSC/Cl-6 cells [1] = assay: MTT cell proliferation assay, activated t-HSC/Cl-6 cells; conditions: mean ± SD, read-out: Inhibitory activity (IC50) in activated t-HSC/Cl-6 cells
Method: (§1) The cell viability was assessed with the MTT assay. The human hepatic stellate cells (t-HSC/Cl-6) and human normal liver cells (LO2) bought from the Cell Bank of Chinese Academy of Sciences (Shanghai, China) were seeded in 96-well plates for 24 h and cultured with high glucose including 10% fetal bovine serum, and 1% penicillin/streptomycin were used to culture cells at 37 °C under 5% CO2 and then were treated with serial dilutions of the compounds (25, 50, 100, 200, 400 μM) for another 36 h. For MTT assay, ten microliters of MTT reagent ([…]) was added to each well after removing all the liquid in the wells, and incubated at 37 °C in a humidified atmosphere of 5% CO2 air for 4 h. At the end of incubation, the growth medium was removed and replaced with 100 μL of DMSO at room temperature and agitating on a vortex for 20 min. The absorbance was determined at 490 nm as reference on a Bio-Rad micro-plate reader.

LO2 cells [2] = assay: MTT cell proliferation assay, LO2 normal liver cells; conditions: for IC50: 36 h, MTT, read-out: Inhibitory activity (IC50) in LO2 cells
Method: as §1

t-HSC/C1-6 cells = assay: Cell cycle analysis by flow cytometry (propidium iodide); conditions: 50 μM compound, 36 h; control group 1.04%
Method: The cell cycle analysis was performed using a previous method. The t-HSC/C1-6 cells were cultured in the presence of 50 μM compound 19 and DMSO for 12 h, 24 h, and 36 h. Briefly, treated and untreated cells were trypsinized, harvested, and washed with PBS. Then the cells were fixed with 75% ethanol overnight at […]. Fixed cells were washed with PBS and stained with propidium iodide solution in the dark for 4 h. Cell cycle distribution was analyzed using FACScan (Becton Dickinson Immunocytometry Systems, San Jose, CA, USA).

t-HSC/Cl-6 cells [3] = assay: Cell apoptosis analysis: cell morphology and DAPI nuclear staining, t-HSC/Cl-6 cells; conditions: 36 h
Method: (§2) For cell morphology analysis, t-HSC/C1-6 cells and LO2 cells were grown in 6-well plates. After 24 h, compound 19 was incubated with the cells for another 36 h and 0.1% DMSO was used to culture control cells. […] Then the cells were rinsed with PBS and resuspended in 1 mL of 0.1% DAPI prepared in methanol for 15 min. PBS was used to wash the cells three times. Nuclear morphology was observed by a fluorescent microscope (Olympus BH-2, Osaka, Japan).

LO2 cells [4] = assay: Cell apoptosis analysis: cell morphology and DAPI nuclear staining, LO2 cells; conditions: 36 h
Method: as §2

t-HSC/Cl-6 cells [5] = assay: Western blotting of cell cycle, PI3K/Akt and caspase proteins
Method: RIPA lysis buffer was used to extract total cellular proteins, and the protein concentration was determined by bicinchoninic acid. Protein samples (20 μg/lane) were loaded onto 10% SDS–PAGE gels for electrophoresis and then the transmembrane was conducted. After that, blocking of polyvinylidene fluoride (PVDF) membrane was carried out using 5% bovine serum albumin in Tris-buffered saline Tween-20 (TBST) buffer for 1 h, subsequently probing with a primary antibody (1:1000 dilution), such as p-PI3K, p-Akt, Cl-caspase-3, Cl-caspase-9, Cl-PARP, CDK4, Cyclin D1, or P21, at 4 °C overnight. Then, TBTS was used to wash the membrane. The PVDF membranes were incubated with the secondary antibody (1:5000 dilution) for 2 h. X-ray films were employed to develop the signals.

[6] = Rattus norvegicus, T-HSC/Cl-6, 36 h
[7] = dose-dependent manner as printed

SMILES	IC50 (t-HSC/Cl-6 cells [1]; [6]) [µM]	IC50 (LO2 cells [2]; Homo sapiens, L02) [µM]	other results
CC(C)=CC1CC(O)(C2CCC3(C)C2CCC2C4(C)CCC(OC5OC(CO)C(O)C(OC6OCC(O)C(O)C6O)C5OC5OC(C)C(O)C(O)C5O)C(C)(C)C4CCC23C)C(O)O1 (centres unmarked) [Compound 8]	68.8 ± 3.2	> 200	
CC(C)=CCCC(O)(CO)C1CCC2(C)C1CCC1C3(C=O)CCC(OC4OCC(O)C(O)C4OC4OC(C)C(O)C(O)C4O)C(C)(C)C3CCC12C (centres unmarked) [Compound 2]	50.4 ± 1.4	> 200	
CC(C)=CC1CC(O)(C2CCC3(C)C2CCC2C4(C)CCC(OC5OC(CO)C(O)C(OC6OCC(O)C(O)C6O)C5OC5OC(C)C(O)C(O)C5O)C(C)(C)C4CCC23C)C(=O)O1 (centres unmarked) [Compound 6]			IC50 (t-HSC/Cl-6 cells [1]; 36 h): 99.9 ± 4.5 µM; IC50 (LO2 cells [2]): > 200 µM
CC(C)=CCCC(O)(COC1OC(CO)C(O)C(O)C1O)C1CCC2(C)C1CCC1C3(C=O)CCC(OC4OCC(O)C(OC5OC(CO)C(O)C(O)C5O)C4OC4OC(C)C(O)C(O)C4O)C(C)(C)C3CCC12C (centres unmarked) [Compound 10]	> 200	> 200	
CC(C)=CCCC(O)(COC1OC(CO)C(O)C(O)C1O)C1CCC2(C)C1CCC1C3(C)CCC(OC4OC(CO)C(O)C(OC5OCC(O)C(O)C5O)C4OC4OCC(O)C(O)C4O)C(C)(C)C3CCC12C (centres unmarked) [Compound 1]	> 200	> 200	
C=C(C)OCC1OC(OC2CCC3(C)C(CCC4(C)C3CCC3C(C5(O)CC(C=C(C)C)OC5=O)CCC34C)C2(C)C)C(OC2OC(C)C(O)C(O)C2O)C(OC2OCC(O)C(O)C2O)C1O (centres unmarked) [Compound 4]	126 ± 9.7	> 200	
CC(C)=CC1CC(O)(C2CCC3(C)C2CCC2C4(C)CCC(OC5OC(CO)C(O)C(OC6OCC(O)C(O)C6O)C5OC5OC(C)C(O)C(O)C5O)C(C)(C)C4CCC23C)C(=O)O1 (centres unmarked) [Compound 9]	114 ± 7.8	> 200	
CCCCOC1OC(C=C(C)C)CC1(O)C1CCC2(C)C1CCC1C3(C)CCC(OC4OC(CO)C(O)C(OC5OCC(O)C(O)C5O)C4OC4OC(C)C(O)C(O)C4O)C(C)(C)C3CCC12C (centres unmarked) [Compound 19]	28.1 ± 2	> 200	Cytotoxicity to LO2 cells (LO2 cells [2]; in words): nontoxic; Cells in the subG1 phase (t-HSC/C1-6 cells): 38.63%; Nuclear morphology of t-HSC/Cl-6 cells (DAPI staining) (t-HSC/Cl-6 cells [3]): Typical apoptotic nuclear changes were observed; Cell morphology (apoptosis) of t-HSC/Cl-6 cells (t-HSC/Cl-6 cells [3]; phase contrast microscopy): apoptotic bodies and cell shrinkage were observed; Nuclear morphology of LO2 cells (DAPI staining) (LO2 cells [4]): did not appear to have any specific effect; Cell morphology of LO2 cells (LO2 cells [4]; phase contrast microscopy): no shrinkage was seen; cyclin D1 expression (t-HSC/Cl-6 cells [5]): decreased; p21 level (t-HSC/Cl-6 cells [5]): significant accumulation; Expression of phosphorylated-Akt (t-HSC/Cl-6 cells [5]; as time increased): inhibited; Expression of phosphorylated-PI3K (t-HSC/Cl-6 cells [5]; as time increased): inhibited; Expression level of cleaved caspase-3 (t-HSC/Cl-6 cells [5]; [7]): activated; Expression level of cleaved caspase-9 (t-HSC/Cl-6 cells [5]; [7]): activated
CC(C)=CCCC(O)(COC1OC(CO)C(O)C(O)C1O)C1CCC2(C)C1CCC1C3(CO)CCC(OC4OC(CO)C(O)C(OC5OCC(O)C(O)C5O)C4OC4OC(C)C(O)C(O)C4O)C(C)(C)C3CCC12C (centres unmarked) [Compound 14]	> 200	> 200	
CCCCOC1OC(C=C(C)C)CC1(O)C1CCC2(C)C1CCC1C3(C)CCC(OC4OCC(O)C(OC5OCC(O)C(O)C5O)C4OC4OC(C)C(O)C(O)C4O)C(C)(C)C3CCC12C (centres unmarked) [Compound 16]	44.7 ± 1	> 200	
C=C(C)OCC1OC(OC2CCC3(C)C(CCC4(C)C3CCC3C(C5(O)CC(C=C(C)C)OC5O)CCC34C)C2(C)C)C(OC2OC(C)C(O)C(O)C2O)C(OC2OCC(O)C(O)C2O)C1O (centres unmarked) [Compound 5]	> 200	> 200	
CC(C)=CCCC(O)(CO)C1CCC2(C)C1CCC1C3(C)CCC(OC4OC(CO)C(O)C(OC5OCC(O)C(O)C5O)C4OC4OC(C)C(O)C(O)C4O)C(C)(C)C3CCC12C (centres unmarked) [Compound 7]	152 ± 7.4	> 200	
CC(C)=CCCC(O)(CO)C1CCC2(C)C1CCC1C3(C=O)CCC(OC4OCC(O)C(OC5OCC(O)C(O)C5O)C4OC4OC(C)C(O)C(O)C4O)C(C)(C)C3CCC12C (centres unmarked) [Compound 11]	43.6 ± 2.7	> 200	
CC(=O)OCC1OC(OC2CCC3(C)C(CCC4(C)C3CCC3C(C5(O)CC(C=C(C)C)OC5=O)CCC34C)C2(C)C)C(OC2OC(C)C(O)C(O)C2O)C(OC2OCC(O)C(O)C2O)C1O (centres unmarked) [Compound 17]	66.1 ± 3.8	> 200	
C=C(C)OCC1OC(OC2CCC3(C)C(CCC4(C)C3CCC3C(C(O)(CCC=C(C)C)COC5OC(CO)C(O)C(O)C5O)CCC34C)C2(C)C)C(OC2OC(C)C(O)C(O)C2O)C(OC2OCC(O)C(O)C2O)C1O (centres unmarked) [Compound 3]	> 200	> 200	
CC(C)=CCCC(O)(COC1OC(CO)C(O)C(O)C1O)C1CCC2(C)C1CCC1C3(CO)CCC(OC4OCC(O)C(OC5OCC(O)C(O)C5O)C4OC4OC(C)C(O)C(O)C4O)C(C)(C)C3CCC12C (centres unmarked) [Compound 15]	> 200	> 200	
CC(C)=CCCC(O)(COC1OC(CO)C(O)C(O)C1O)C1CCC2(C)C1CCC1C3(C)CCC(OC4OC(CO)C(O)C(OC5OCC(O)C(O)C5O)C4OC4OC(C)C(O)C(O)C4O)C(C)(C)C3CCC12C (centres unmarked) [Compound 13]			IC50 (t-HSC/Cl-6 cells [1]; 36 h): 106 ± 2.6 µM; IC50 (LO2 cells [2]): > 200 µM
C=C(C)C=CCC(O)(COC1OC(CO)C(O)C(O)C1O)C1CCC2(C)C1CCC1C3(C)CCC(OC4OC(CO)C(O)C(OC5OCC(O)C(O)C5O)C4OC4OCC(O)C(O)C4O)C(C)(C)C3CCC12C (centres unmarked) [Compound 18]	58 ± 2.9	> 200	
CC(C)=CCCC(O)(COC1OC(CO)C(O)C(O)C1O)C1CCC2(C)C1CCC1C3(C)CCC(OC4OC(CO)C(O)C(OC5OCC(O)C(O)C5O)C4OC4OC(C)C(O)C(O)C4O)C(C)(C)C3CCC12C (centres unmarked) [Compound 12]	> 200	> 200	
